Assays:
[1] = test system: Whole cord blood cells or CD34^+ cells; experiment: Colony Forming Unit-Cell assay (CFU-C); assay type: cell-based, human
Description: Colony Forming Unit-Cell assays (CFU-C) were performed using a methyl cellulose assay kit, MethoCult® GF H4034 (Stem Cell Technologies, Vancouver, CA). Whole cord blood cells or CD34^+ cells obtained from Stem Cell Technologies (Vancouver, Canada) were aliquoted equally in Eppendorf tubes and treated ex vivo at a range of 16,16-dimethyl PGE2 concentrations (10 μM to 100 μM) or DMSO control; temperatures (4° C., 22° C., or 37° C.) for 120 minutes in LMD/5% HSA media. After treatment, the cells were washed in LMD/5% HSA media and resuspended in Iscove's Media containing 2% Fetal Bovine Serum (FBS) (Stem Cell Technologies). Cells were then loaded into a MethoCult® assay tube, mixed, and plated in 35 mm tissue culture plates according to the manufacturer's instructions. Unless otherwise mentioned, the equivalent of 10,000 WCB cells and 250 CD34^+ cells were loaded into each plate.

human CD34^+ cells = experiment: Microfluidic qPCR using the Fluidigm platform (signature genes of Table 3); assay type: cell-based; details: 37° C.
Description: Real-time PCR transcript quantitation from 16,16-dimethyl PGE2 ex vivo treated CD34+ cell samples was performed using the BioMark Dynamic Array microfluidics system (Fluidigm Corporation, South San Francisco, Calif., USA). Total RNA was isolated from treated cells using Pico Pure RNA Isolation Kit (Molecular Devices, Sunnyvale, Calif., USA). Complimentary DNA (cDNA) was reverse transcribed from 50 ng of isolated total RNA using the High-Capacity cDNA Reverse Transcription Kit (Life Technologies Corporation, Carlsbad, Calif., USA).
cDNA was pre-amplified for specific target genes (96) using a 200 nM mixture of 96 gene specific primer pairs (see Table 1), including 6 reference control genes using the TaqMan PreAmp Master Mix Kit (Life Technologies) protocol. Specific target amplification (STA) from cDNA was performed using 14 cycles of amplification with the standard cycling conditions using the manufacturer's protocol. EvaGreen dye (Biotium, Inc. Hayward, Calif., USA) was added according to Fluidigm's EvaGreen protocol to detect amplified products. For samples, the reaction mix contained 3.0 μL Gene Expression Master Mix (Life Tech.), 0.3 μL Sample Loading Buffer (Fluidigm), 0.3 μL 20× EvaGreen dye (Biotium, Inc.), 1.5 μL diluted (1:5 sterile nH2O) STA cDNA, and 0.9 μL sterile diH2O for loading into the sample inlets of the 96.96 Dynamic Array (Fluidigm).
Samples were run in replicates, from 5 to 9 wells. For primer pairs, the reaction mix contained 2.5 μL Gene Specific Primer pairs (20 μM) and 2.5 μL Assay Loading Buffer (Fluidigm) for loading into the assay inlets on the 96.96 Dynamic Array (Fluidigm). 96.96 Dynamic arrays were loaded using a NanoFlex IFC Controller HX (Fluidigm) and real-time reactions were performed using a BioMark Real-Time PCR System (Fluidigm).
Results were analyzed using BioMark Real-Time PCR Analysis software. Average Cts were calculated from the sample replicates and delta-delta Cts (ΔΔCt) were calculated using the mean of 6 reference genes (ACTB, GAPDH, HPRT1, QARS, ARPC2 and LRIG2) against a vehicle only sample. Cts above 28 or amplified products with inappropriate melting curve properties were excluded from the calculations.
A microfluidic qPCR platform was also used to measure expression changes of a 16,16-dimethyl PGE2 gene expression signature of the genes listed in Table 3 in human CD34^+ cells at different incubation times.
Further, gene expression signatures were measured on cells that received short pulse treatments with 16,16-dimethyl PGE2 followed by a recovery period in the absence of the drug. Human CD34^+ cells were incubated for different times in the presence of 16,16-dimethyl PGE2 followed by a wash and recovery period in media designed to reflect the in vivo setting. The experimental design matched the ex vivo treatment paradigm where cells are treated, washed to remove the drug and then administered to the patient. CD34^+ cells were incubated with 16,16-dimethyl PGE2 at 37° C. for 5, 15, 30, 60, or 120 minutes and the gene expression signatures were analyzed. For incubation periods less than 120 minutes, the cells were washed in media to remove the 16,16-dimethyl PGE2 and then the cells were incubated for the remaining period in media to allow time for gene expression to take place.

For `CCCCC(C)(C)[C@H](O)/C=C/[C@H]1[C@H](O)CC(=O)[C@@H]1C/C=C\CCCC(=O)O` [16,16-dimethyl PGE2], the “CFU-C colony formation (FIG. 19D)” value ([1]; CD34+ cells treated at 37° C. vs DMSO or 4° C.) was “increase in CFU-C colony formation”, the “ability to form colony forming units (FIG. 11)” value ([1]; CD34+ cells, 10 μM, 120 minutes, 37° C. vs vehicle or 4° C.) was “does not decrease the ability of the cells to form colony forming units” and the “proliferative potential (CFU-C)” value ([1]; whole cord blood cells or CD34+ cells, high temperatures, relatively long incubation periods vs other conditions) was “higher proliferative potential”. The “pulse incubation giving maximal gene expression changes” value (human CD34^+ cells; 10 μM) was “about 2 hours”, the “constant exposure after which suitable gene expression signatures were detectable” value (human CD34^+ cells; 10 μM, FIG. 14A) was “at least 60 minutes” and the “constant exposure giving maximal gene expression response” value (human CD34^+ cells; 10 μM, FIG. 14A-B) was “after at least about two hours”. For the same compound, the “pulse incubation after which recognizable gene expression signatures were observed” value (human CD34^+ cells; 10 μM, recovery to 120 minutes total) was “about 30 minutes”, the “gene expression response to short pulse treatments (5-15 minutes)” value (human CD34^+ cells; 10 μM, recovery to 120 minutes total, FIGS. 15A-15B) was “not sufficient” and the “concentration at which the gene expression signature was maximal” value (human CD34^+ cells; 2 hours, FIGS. 16A-16B) was 10 µM.
